Results as given in US4402970A, “1,7-Dihydro-pyrrolo[3,4-e][1,4]diazepin-2(1H)-one derivatives” (Gruppo Lepetit S.p.A., priority 1981, dated 1983).
Read-outs that look alike come from different tables or passages of the source.

Experiments:
benzodiazepine receptors [1] = assay: benzodiazepine receptors test in vitro (displacement of 3H-Diazepam from rat brain receptors); type: binding
Protocol: (§1) The anti-anxiety activity of the compounds of the present invention was first shown by submitting the compounds to the "benzodiazepine receptors" test both in vitro and in vivo.
(§2) The in vitro experiments were carried out by following the method described by H. Moler and T. Okada in Life Sciences Vol. 20, 2101-2110 (1977) while those in vivo were carried out according to the procedures illustrated by S. Lippa et al. in Pharmacol. Biochem. & Behaviour, Vol. 9, pp. 853-856 (1978).

rats = assay: potentiation of hexobarbital-induced sleeping time in rats (inducing activity); type: in vivo; conditions: for potentiation of hexobarbital-induced "sleeping time": same conditions, higher doses than 1 mg/kg p.o.
Protocol: (§3) This is considered as an indication of the absence of inducing activity. These favorable pharmacological properties of the compounds of the present invention are accompanied by a low toxicity, lower than that of the prior-art compounds. As an example, while the acute oral toxicity of the prior-art 3,7-dihydro-6,7-dimethyl-5-phenylpyrrolo[3,4-e][1,4]diazepin-2(1H)-one in mice is about 500 mg/kg, that of the compound of example 5 of the present invention is comprised between 600 and 700 mg/kg and that of the compound of example 11 is higher than 20,000 mg/kg.

benzodiazepine receptors [2] = assay: benzodiazepine receptors test in vivo (displacement of 3H-Diazepam from rat brain receptors)
Protocol: as §1, §2

[3] = acute oral toxicity in mice; conditions: mouse, in vivo
Protocol: as §3

[4] = test system: mice (pentylenetetrazole-induced death); assay: antipentylenetetrazole bioassay in mice (anticonvulsant activity); type: in vivo; conditions: oral; for ED50: Mus musculus, 2 h
Protocol: To evaluate the anticonvulsant activity the compounds of the present invention have been submitted to the antipentylenetetrazole bioassay in mice. The experiments have been carried out by following essentially the methodology described by Berger in J. Pharm. Exptl. Ther. 104, 468, (1952). More particularly, a fatal dose of pentylenetetrazole (140 mg/kg s.c.) was administered to groups of ten mice each, treated, 30 minutes before the administration of the convulsant agent, with a selected dose of the potential anticonvulsant compound. […] Since the animals of the control group died within 30 minutes, the effectiveness of the compounds tested, at each dose tested, was expressed as the number of animals of the group which were still alive two hours after the administration of pentylenetetrazole, out of the total number of animals of the group (10).
By testing each compound at different doses, the corresponding ED50, i.e. the dose at which 50% of the treated animals are protected, was calculated.
The same test was carried out also with 3,7-dihydro-6,7-dimethyl-5-phenyl-pyrrol[3,4-e][1,4]diazepin-2 (1H)-one (IX) [drawing 13]

monkeys = assay: taming effect test on naturally vicious and aggressive monkeys; type: in vivo; conditions: oral dose of 1 mg/kg
Description: Another behavioural test which confirmed the anti-anxiety properties of the compounds of the present invention was the so-called "taming effect" test carried out on naturally vicious and aggressive monkeys.
The "taming effect" on monkeys is one of the most meaningful and reliable parameters with which the anti-anxiety properties of a compound can be investigated. […] A true "taming effect", as an indication of the anti-anxiety properties of a compound not ascribable to CNS-depression, is reached when the animals become docile and friendly so as to accept food from the observer's hand.

[5] = 30 minutes before pentylenetetrazole 140 mg/kg s.c., survival at two hours, read-out: ED50 (dose at which 50% of the treated animals are protected)

SMILES | Ki (benzodiazepine receptors [1]) [nM] | potentiation of hexobarbital-induced "sleeping time" (rats) | "in vivo" % inhibition at 1 mg/kg/os (benzodiazepine receptors [2]) [%] | LD50 [3] [mg/kg] | ED50 [4, 5] [mg/kg] | treated animals displaying a true "taming effect" (monkeys) | dose from which hexobarbital-induced "sleeping time" is potentiated (rats; p.o.) [mg/kg p.o.] | ED50 ([4]; prior-art compound, calculated in the same way, read-out: ED50) [mg/kg] | anticonvulsant activity relative to the compounds of the present invention ([4]; comparison of ED50)
Cc1c2c(cn1C)NC(=O)C(O)N=C2c1ccccc1 (stereo not shown) [Example 5, 1,7-Dihydro-3-hydroxy-6,7-dimethyl-5-phenyl-pyrrolo[3,4-e][1,4]diazepin-2(1H)-one] | 45.9 | did not show this potentiating effect even at higher doses | -45 | 600 to 700 | – | – | – | – | –
CC(=O)OC1N=C(c2ccccc2Cl)c2c(cn(C)c2C)NC1=O (stereo not shown) [Example 9, 5-(2-chlorophenyl)-3-acetoxy-1,7-dihydro-6,7-dimethylpyrrolo[3,4-e][1,4]diazepin-2-(1H)-one] | – | – | – | – | 7.5 | – | – | – | –
Cc1c2c(cn1C)NC(=O)C(O)N=C2c1ccccc1Cl (stereo not shown) [Example 10] | – | – | – | – | 7.5 | at least 50% | – | – | –
Cc1c2c(cn1C)N(C)C(=O)C(O)N=C2c1ccccc1Cl (stereo not shown) [Example 11, 5-(2-Chlorophenyl)-1,7-dihydro-3-hydroxy-1,6,7-trimethylpyrrolo[3,4-e][1,4]diazepin-2(1H)-one] | 2.82 | did not show this potentiating effect even at higher doses | -54 | > 20000 | 5 | at least 50% | – | – | –
Cc1c2c(cn1C)NC(=O)CN=C2c1ccccc1 [IX, 3,7-dihydro-6,7-dimethyl-5-phenyl-pyrrol[3,4-e][1,4]diazepin-2 (1H)-one, reference compound] | 97 | – | -33 | ~500 | – | – | 1 | 15 | at least twice less active than the compounds of the present invention
